We go through 22 compounds from US8492371B2, “Compounds as cannabinoid receptor ligands” (priority 2009, dated 2013).

pKi: −log10 of the molar value. Like-named read-outs stand apart in the source and are kept apart here.

The target of assay [1] is T1, human CB2 receptors (Homo sapiens, UniProt P34972).
T1 construct: expressed in transfected cells; host or cells: HEK293
Briefly: Human CB2 radioligand binding assay ([3H]CP-55,940 competition). A digest of the protocol: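 Membranes from HEK293 cells stably expressing human CB2 (5 μg/well) incubated 90 min at 30 °C with 0.5 nM [3H]CP-55,940 and five concentrations of displacer (0.01 nM–10 μM) in pH 7.4 Tris/EDTA/MgCl2 buffer with fatty acid free BSA. Bound radioactivity counted after filtration; nonspecific binding defined with 10 μM unlabeled CP-55,940.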

For assay [2], the target named is T2, rat CB2 receptors (Rattus norvegicus, UniProt Q9QZN9).
T2 construct: expressed in transfected cells; host or cells: HEK293
T2 sequence (Q9QZN9 1-360): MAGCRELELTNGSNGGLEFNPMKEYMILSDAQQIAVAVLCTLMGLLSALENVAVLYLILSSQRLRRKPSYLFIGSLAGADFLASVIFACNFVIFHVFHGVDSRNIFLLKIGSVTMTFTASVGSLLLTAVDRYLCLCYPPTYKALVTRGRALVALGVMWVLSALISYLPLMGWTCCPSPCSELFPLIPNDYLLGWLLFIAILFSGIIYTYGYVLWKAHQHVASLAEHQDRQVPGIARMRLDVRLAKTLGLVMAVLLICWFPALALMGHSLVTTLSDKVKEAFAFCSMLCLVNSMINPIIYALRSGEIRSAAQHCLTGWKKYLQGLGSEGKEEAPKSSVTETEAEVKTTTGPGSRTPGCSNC
Briefly: Rat CB2 radioligand binding assay ([3H]CP-55,940 competition). A digest of the protocol:
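Membranes from HEK293 cells stably expressing rat CB2 (20 μg/well) incubated 45 min at 30 °C with 0.5 nM [3H]CP-55,940 and five competitor concentrations in Tris/EDTA/MgCl2 buffer with 0.5 mg/mL BSA, pH 7.4. Filtration and scintillation counting; nonspecific binding with 10 μM unlabeled CP-55,940.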

[3] abbreviates: HEK293 membranes, 0.5 nM [3H]CP-55,940, read-out: human CB2 Ki.

T1 sequence (P34972 whole entry): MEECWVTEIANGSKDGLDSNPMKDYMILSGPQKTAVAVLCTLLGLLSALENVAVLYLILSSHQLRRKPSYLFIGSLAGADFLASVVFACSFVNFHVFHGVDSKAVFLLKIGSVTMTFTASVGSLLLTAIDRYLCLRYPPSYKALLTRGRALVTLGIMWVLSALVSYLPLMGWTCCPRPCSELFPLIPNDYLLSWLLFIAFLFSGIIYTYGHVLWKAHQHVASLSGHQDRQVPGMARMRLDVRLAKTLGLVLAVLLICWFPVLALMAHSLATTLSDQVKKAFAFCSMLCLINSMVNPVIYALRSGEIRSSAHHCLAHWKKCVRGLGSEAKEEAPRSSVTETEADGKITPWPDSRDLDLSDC

On to `Cn1c(C(C)(C)C)c/c(=N\C(=O)c2cc(C(F)(F)F)ccc2OCC(F)(F)F)n1C[C@H]1CCCO1` [Example 21, N-{(3E)-5-tert-butyl-1-methyl-2-[(2R)-tetrahydrofuran-2-ylmethyl]-1,2-dihydro-3H-pyrazol-3-ylidene}-2-(2,2,2-trifluoroethoxy)-5-(trifluoromethyl)benzamide], for which the pKi in assay [1] was 7.20; in assay [2] it was 7.66.
The matching figures for `COc1ccc(C(F)(F)F)cc1C(=O)/N=c1\cc(C2(C)CC2)n(C)n1C[C@H]1CCCO1` [Example 33, 2-methoxy-N-{(3E)-1-methyl-5-(1-methylcyclopropyl)-2-[(2R)-tetrahydrofuran-2-ylmethyl]-1,2-dihydro-3H-pyrazol-3-ylidene}-5-(trifluoromethyl)benzamide]: 7.09 and 7.85.
The matching figures for `Cn1c(C(C)(C)C)c/c(=N\C(=O)c2cc(Br)ccc2OCCF)n1C[C@H]1CCCO1` [Example 59, 5-bromo-N-{(3E)-5-tert-butyl-1-methyl-2-[(2R)-tetrahydrofuran-2-ylmethyl]-1,2-dihydro-3H-pyrazol-3-ylidene}-2-(2-fluoroethoxy)benzamide]: 7.55 and 7.57.
Taken in the same sequence, the figures for `Cn1c(C(C)(C)C)c/c(=N\C(=O)c2cc(C#N)ccc2F)n1C[C@H]1CCCO1` [Example 114, N-{(3E)-5-tert-butyl-1-methyl-2-[(2R)-tetrahydrofuran-2-ylmethyl]-1,2-dihydro-3H-pyrazol-3-ylidene}-5-cyano-2-fluorobenzamide] were 7.39 and 7.70.
For `Cn1c(C(C)(C)C)c/c(=N\C(=O)c2cc(C(F)(F)F)ccc2OC[C@H]2C[C@@H](O)C2)n1C[C@H]1CCCO1` [Example 16, N-{(3E)-5-tert-butyl-1-methyl-2-[(2R)-tetrahydrofuran-2-ylmethyl]-1,2-dihydro-3H-pyrazol-3-ylidene}-2-[(cis-3-hydroxycyclobutyl)methoxy]-5-(trifluoromethyl)benzamide], the negative logarithm of the Ki (pKi) in assay [1] was 6.83; in assay [2] it was 7.08.
Taken in the same sequence, the figures for `CO[C@@H](C)COc1ccc(C(F)(F)F)cc1C(=O)/N=c1\cc(C(C)(C)C)n(C)n1C[C@H]1CCCO1` [Example 28, N-{(3E)-5-tert-butyl-1-methyl-2-[(2R)-tetrahydrofuran-2-ylmethyl]-1,2-dihydro-3H-pyrazol-3-ylidene}-2-{[(2S)-2-methoxypropyl]oxy}-5-(trifluoromethyl)benzamide] were 7.00 and 7.36.
Consider `COc1ccc(Cl)cc1C(=O)/N=c1\sc(C(C)(C)C)nn1C[C@H]1CCCO1` [Example 4, N-[(2Z)-5-tert-butyl-3-[(2R)-tetrahydrofuran-2-ylmethyl]-1,3,4-thiadiazol-2(3 H)-ylidene]-5-chloro-2-methoxybenzamide], for which the pKi in assay [1] is 8.16; in assay [2], 8.92.
Taken in the same sequence, the figures for `COc1ccc(Cl)cc1C(=O)/N=c1\oc(C(C)(C)C)cn1C[C@H]1CCCO1` [Example 13, N-[(2Z)-5-tert-butyl-3-[(2R)-tetrahydrofuran-2-ylmethyl]-1,3-oxazol-2(3H)-ylidene]-5-chloro-2-methoxybenzamide] were 8.32 and 8.72.
Taken in the same sequence, the figures for `COc1ccc(C(F)(F)F)cc1C(=O)/N=c1\cc(C(C)(C)C)n(C)n1CC1CCCCO1` (centres unmarked) [Example 63, N-[(3E)-5-tert-butyl-1-methyl-2-(tetrahydro-2H-pyran-2-ylmethyl)-1,2-dihydro-3H-pyrazol-3-ylidene]-2-methoxy-5-(trifluoromethyl)benzamide] were 7.44 and 7.70.
For the compound `Cn1c(C(C)(C)C)c/c(=N\C(=O)c2cc(C(F)(F)F)ccc2OCC2CC(=NO)C2)n1C[C@H]1CCCO1` (stereo partly drawn) [Example 119, N-{(3E)-5-tert-butyl-1-methyl-2-[(2R)-tetrahydrofuran-2-ylmethyl]-1,2-dihydro-3H-pyrazol-3-ylidene}-2-{[3-(hydroxyimino)cyclobutyl]methoxy}-5-(trifluoromethyl)benzamide], the pKi is 7.15 in assay [1] and 7.60 in assay [2].
Taken in the same sequence, the figures for `CN(C)CCOc1ccc(C(F)(F)F)cc1C(=O)/N=c1\oc(C(C)(C)C)cn1C[C@H]1CCCO1` [Example 108, N-[(2Z)-5-tert-butyl-3-[(2R)-tetrahydrofuran-2-ylmethyl]-1,3-oxazol-2(3 H)-ylidene]-2-[2-(dimethylamino)ethoxy]-5-(trifluoromethyl)benzamide] were 6.83 and 7.26.
On to `Cn1c(C(C)(C)C)c/c(=N\C(=O)c2cc(N)cc(C(F)(F)F)c2)n1C[C@H]1CCCO1` [Example 107, 3-amino-N-{(3E)-5-tert-butyl-1-methyl-2-[(2R)-tetrahydrofuran-2-ylmethyl]-1,2-dihydro-3H-pyrazol-3-ylidene}-5-(trifluoromethyl)benzamide], for which the pKi was 7.96 in assay [1] and 8.32 in assay [2].
The matching figures for `CCOC(=O)CCc1ccc(C(F)(F)F)cc1C(=O)/N=c1\cc(C(C)(C)C)n(C)n1C[C@H]1CCCO1` [Example 131, ethyl 3-[2-[({(3E)-5-tert-butyl-1-methyl-2-[(2R)-tetrahydrofuran-2-ylmethyl]-1,2-dihydro-3H-pyrazol-3-ylidene}amino)carbonyl]-4-(trifluoromethyl)phenyl]propanoate]: 7.64 and 7.74.
The matching figures for `Cn1c(C(C)(C)C)c/c(=N\C(=O)c2cccc(S(F)(F)(F)(F)F)c2)n1C[C@H]1CCCO1` [Example 15, N-{(3E)-5-tert-butyl-1-methyl-2-[(2R)-tetrahydrofuran-2-ylmethyl]-1,2-dihydro-3H-pyrazol-3-ylidene}-3-(pentafluoro-lambda˜6˜sulfanyl)benzamide]: 8.55 and 8.92.
The matching figures for `CCOCCOc1ccc(C(F)(F)F)cc1C(=O)/N=c1\cc(C(C)(C)C)n(C)n1C[C@H]1CCCO1` [Example 31, N-{(3E)-5-tert-butyl-1-methyl-2-[(2R)-tetrahydrofuran-2-ylmethyl]-1,2-dihydro-3H-pyrazol-3-ylidene}-2-(2-ethoxyethoxy)-5-(trifluoromethyl)benzamide]: 7.96 and 8.21.
For the compound `Cn1c(C(C)(C)C)c/c(=N\C(=O)c2cc(C(F)(F)F)ccc2O)n1C[C@H]1CCCO1` [Example 24, N-{(3E)-5-tert-butyl-1-methyl-2-[(2R)-tetrahydrofuran-2-ylmethyl]-1,2-dihydro-3H-pyrazol-3-ylidene}-2-hydroxy-5-(trifluoromethyl)benzamide], the pKi is 6.59 in assay [1] (setting [3]) and 7.54 in assay [2].
Regarding `Cn1c(C(C)(C)C)c/c(=N\C(=O)c2cc(C(F)(F)F)cc(Cl)c2F)n1C[C@H]1CCCO1` [Example 52, N-{(3E)-5-tert-butyl-1-methyl-2-[(2R)-tetrahydrofuran-2-ylmethyl]-1,2-dihydro-3H-pyrazol-3-ylidene}-3-chloro-2-fluoro-5-(trifluoromethyl)benzamide], the results for the negative-log Ki (pKi) in assay [1] and in assay [2] were 8.18 and 8.89, respectively.
The matching figures for `Cn1c(C(C)(C)C)c/c(=N\C(=O)c2cc(Br)ccc2F)n1C[C@H]1CCCO1` [Example 132, 5-bromo-N-{(3E)-5-tert-butyl-1-methyl-2-[(2R)-tetrahydrofuran-2-ylmethyl]-1,2-dihydro-3H-pyrazol-3-ylidene}-2-fluorobenzamide]: 7.82 and 8.15.
With `Cn1c(C(C)(C)C)c/c(=N\C(=O)c2cc(C(F)(F)F)ccc2OCC2(O)CCC2)n1C[C@H]1CCCO1` [Example 44, N-{(3E)-5-tert-butyl-1-methyl-2-[(2R)-tetrahydrofuran-2-ylmethyl]-1,2-dihydro-3H-pyrazol-3-ylidene}-2-[(1-hydroxycyclobutyl)methoxy]-5-(trifluoromethyl)benzamide], the pKi in assay [1] was 7.77; in assay [2] it was 7.74.
Turning to `COC(=O)Cc1ccc(C(F)(F)F)cc1C(=O)/N=c1\cc(C(C)(C)C)n(C)n1C[C@H]1CCCO1` [Example 128, methyl [2-[({(3E)-5-tert-butyl-1-methyl-2-[(2R)-tetrahydrofuran-2-ylmethyl]-1,2-dihydro-3H-pyrazol-3-ylidene}amino)carbonyl]-4-(trifluoromethyl)phenyl]acetate], the pKi is 6.61 in assay [1] and 6.97 in assay [2].
On to `Cn1c(C(C)(C)C)c/c(=N\C(=O)c2cc([N+](=O)[O-])cc(C(F)(F)F)c2)n1C[C@H]1CCCO1` [Example 106, N-{(3E)-5-tert-butyl-1-methyl-2-[(2R)-tetrahydrofuran-2-ylmethyl]-1,2-dihydro-3H-pyrazol-3-ylidene}-3-nitro-5-(trifluoromethyl)benzamide], for which the pKi is 6.77 in assay [1] (setting [3]) and 7.20 in assay [2].
Consider `COc1ccc(Cl)cc1C(=O)/N=c1\sc(C2(C)CC(F)(F)C2(F)F)nn1C[C@H]1CCCO1` (some centres unmarked) [Example 7, 5-chloro-2-methoxy-N-[(2Z)-5-(2,2,3,3-tetrafluoro-1-methylcyclobutyl)-3-[(2 R)-tetrahydrofuran-2-ylmethyl]-1,3,4-thiadiazol-2(3H)-ylidene]benzamide], for which the values for the negative-log Ki (pKi) in assay [1] and in assay [2] were 7.42 and 8.80, respectively.

As a reminder, the pKi is the negative decadic logarithm of the Ki, by convention in mol/L.
